Test results reported in US7022716B2, “Cyclic amine phenyl beta-3 adrenergic receptor agonists” (Wyeth, priority 2000, dated 2006).

Legend:
[1] = target: T1, human β3 adrenergic receptor (Homo sapiens, UniProt P13945); test: cAMP (SPA) response in CHO cells transfected with human β3 adrenergic receptor; format: cell-based; parameters: key: fraction of maximal isoproterenol (10^-5 M) response; settings: maximal response relative to maximal response of isoproterenol at 10^-5 M
T1 construct: Full length β3 AR clones (402 amino acids) containing the last 6 amino acids of hβ3-AR are prepared; expressed in transfected cells; host or cells: CHO (Chinese hamster ovary) cells
Outline: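 Reactions were stopped with 0.2N HCl and neutralised, and cAMP was measured by SPA. Activity is expressed as percent of the maximal 10^−5 M isoproterenol response.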

T1 sequence (P13945 whole entry): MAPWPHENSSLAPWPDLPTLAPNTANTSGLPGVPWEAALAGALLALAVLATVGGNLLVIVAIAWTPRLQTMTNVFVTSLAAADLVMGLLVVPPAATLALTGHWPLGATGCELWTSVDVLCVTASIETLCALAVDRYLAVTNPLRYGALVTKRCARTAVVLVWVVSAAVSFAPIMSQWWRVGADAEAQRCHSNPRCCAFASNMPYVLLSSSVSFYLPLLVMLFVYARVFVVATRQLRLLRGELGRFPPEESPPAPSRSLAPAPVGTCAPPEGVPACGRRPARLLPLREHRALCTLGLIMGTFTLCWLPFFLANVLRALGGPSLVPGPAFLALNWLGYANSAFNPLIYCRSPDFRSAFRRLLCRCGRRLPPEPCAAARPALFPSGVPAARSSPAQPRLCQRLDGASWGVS

Row | IA(β3) [1] | melting point | Structure (SMILES)
1 | 1 | 130 to 132 °C | CC(C)(C)OC(=O)CN1C(=O)SC(Cc2ccc(N3CCC(NC[C@H](O)c4ccc(O)c(NS(C)(=O)=O)c4)CC3)cc2)C1=O (stereo partly drawn) [Example 64, 5-[[4-[4-[[(R)-2-Hydroxy-2-[4-hydroxy-3-[(methylsulfonyl)amino]phenyl]ethyl]amino]-1-piperidinyl]phenyl]methyl]-2,4-dioxo-3-thiazolidineacetic acid tert-butyl-ester]
2 | 0.81 | 153 to 155 °C | CCOC(=O)CN1C(=O)SC(Cc2ccc(N3CCC(NC[C@H](O)c4ccc(O)c(NS(C)(=O)=O)c4)CC3)cc2)C1=O (stereo partly drawn) [Example 66, 5-[[4-[4-[[(R)-2-Hydroxy-2-[4-hydroxy-3-[(methylsulfonyl)amino]phenyl]ethyl]amino]-1-piperidinyl]phenyl]methyl]-2,4-dioxo-3-thiazolidineacetic acid ethyl-ester]
3 | 1 | 162 to 164 °C | O=C1NC(=O)C(=Cc2ccc(N3CCC(NC[C@H](O)COc4cccc5[nH]c(=O)[nH]c45)CC3)c(F)c2)S1 [Example 69, 5-(3-Fluoro-4-{4-[(2S)-2-hydroxy-3-(2-oxo-2,3-dihydro-1H-benzoimidazol-4-yloxy)-propylamino]-piperidin-1-yl}-benzylidene)-thiazolidine-2,4-dione]
4 | 1.2 | > 200 °C | CS(=O)(=O)Nc1cc(C(O)CNC2CCN(c3ccc(C=C4SC(=O)NC4=O)cc3Br)CC2)ccc1O (stereo not shown) [Example 70, N-[5-(2-{1-[2-Bromo-4-(2,4-dioxo-thiazolidin-5-ylidenemethyl)-phenyl]-piperidin-4-ylamino}-1-hydroxy-ethyl)-2-hydroxy-phenyl]-methanesulfonamide]
5 | 1.2 | > 225 °C | CS(=O)(=O)Nc1cc(C(O)CNC2CCN(c3ccc(C=C4SC(=O)NC4=O)cc3F)CC2)ccc1O (stereo not shown) [Example 71, N-[5-(2-{1-[4-(2,4-Dioxo-thiazolidin-5-ylidenemethyl)-2-fluoro-phenyl]-piperidin-4-ylamino}-1-hydroxy-ethyl)-2-hydroxy-phenyl]-methanesulfonamide]
6 | 0.68 | > 220 °C (dec.) | O=C1NC(=S)SC1=Cc1ccc(N2CCC(NC[C@H](O)COc3ccccc3)CC2)cc1 [Example 72, 5-{4-[4-((2S)-2-Hydroxy-3-phenoxy-propylamino)-piperidin-1-yl]-benzylidene}-2-thioxo-thiazolidin-4-one]
7 | 0.71 | 218 to 220 °C | O=C1NC(=O)C(Cc2ccc(N3CCC(NC[C@H](O)COc4ccccc4)CC3)cc2)S1 (stereo partly drawn) [Example 73, 5-[4-[4-((2S)-2-Hydroxy-3-phenoxy-propylamino)-piperidin-1-yl]-benzyl}-thiazolidin-2,4-dione]
8 | 0.23 | > 70 °C (dec.) | O=C1NC(=O)C(Cc2ccc(N3CCC(NCC(O)COc4ccc(OCc5ccccc5)cc4)CC3)cc2)S1 [Example 74, 5-(4-{4-[(2S)-3-(4-Benzyloxy-phenoxy)-2-hydroxy-propylamino]-piperidin-1-}-benzyl)-thiazolidine-2,4-dione]
9 | 1.08 | > 240 °C (dec.) | O=C1NC(=O)C(=Cc2ccc(N3CCC(NC[C@H](O)COc4cccc5[nH]c(=O)[nH]c45)CC3)cc2)S1 [Example 75, 5-(4-{4-[(2S)-2-Hydroxy-3-(2-oxo-2,3-dihydro-1H-benzoimidazol-4-yloxy)-propylamino]-piperidin-1-yl}-benzylidene)-thiazolidine-2,4-dione]
10 | 0.94 | > 208 °C (dec.) | O=C1NC(=O)C(=Cc2ccc(N3CCC(NC[C@H](O)COc4ccc(O)cc4)CC3)cc2)S1 [Example 76, 5-(4-{4-[(2S)-2-Hydroxy-3-(4-hydroxy-phenoxy)-propylamino]-piperidin-1-yl}-benzylidene)-thiazolidine-2,4-dione]
11 | 0.56 | > 195 °C | O=C1NC(=O)C(Cc2ccc(N3CCC(NC[C@H](O)c4cccc(Cl)c4)CC3)cc2)S1 (stereo partly drawn) [Example 79, 5-(4-{4-[2-(3-Chloro-phenyl)-(2R)-2-hydroxyethylamino}-piperidin-1-yl}-benzyl)-thiazolidine-2,4-dione]
12 | 1.1 | 173 to 175 °C (dec.) | O=C1NC(=O)C(Cc2ccc(N3CCC(NC[C@H](O)COc4cccc5[nH]c(=O)[nH]c45)CC3)cc2)S1 (stereo partly drawn) [Example 80, 5-(4-{4-[(2S)-2-Hydroxy-3-(2-oxo-2,3-dihydro-1H-benzoimidazol-4-yloxy)-propylamino]-piperidin-1-yl}-benzyl)-thiazolidine-2,4-dione]
13 | 0.89 | > 160 °C (dec.) | O=C1NC(=O)C(Cc2ccc(N3CCC(NC[C@H](O)COc4ccc(O)cc4)CC3)cc2)S1 (stereo partly drawn) [Example 81, 5-(4-{4-[(2S)-2-Hydroxy-3-(4-hydroxy-phenoxy)-propylamino]-piperidin-1-yl}-benzyl)-thiazolidine-2,4-dione]
14 | 0.68 | 208 to 210 °C | O=C1NC(=O)C(=Cc2ccc(N3CCC(NC[C@H](O)COc4ccccc4)CC3)cc2)S1 [Example 83, 5-{4-[4-((2S)-2-Hydroxy-3-phenoxy-propylamino)-piperidin-1-yl]-benzylidene}-thiazolidine-2,4-dione]
15 | 0.94 | > 201 °C (dec.) | CS(=O)(=O)Nc1cc(C(O)CNC2CCN(c3ccc(C=C4NC(=O)NC4=O)cc3)CC2)ccc1O (stereo not shown) [Example 85, N-[5-(2-{1-[4-(2,5-Dioxo-imidazolidin-4-ylidenemethyl)-phenyl]-piperidin-4-ylamino}-1-hydroxy-ethyl)-2-hydroxy-phenyl]-methanesulfonamide]
16 | 0.69 | > 132 °C (dec.) | O=C1NC(=O)C(Cc2ccc(N3CCC(NCC(O)COc4cccc5[nH]c(=O)[nH]c45)CC3)cc2)N1 (stereo not shown) [Example 86]
17 | 1 | > 105 °C (dec.) | CS(=O)(=O)Nc1cc(C(O)CNC2CCN(c3ccc(CC4NC(=O)NC4=O)cc3)CC2)ccc1O (stereo not shown) [Example 87, N-[5-(2-{1-[4-(2,5-Dioxo-imidazolidin-4-ylmethyl)-phenyl]-piperidin-4-ylamino}-1-hydroxy-ethyl)-2-hydroxy-phenyl]-methanesulfonamide]
18 | 1.1 | > 155 °C (dec.) | N=C1NC(=O)C(Cc2ccc(N3CCC(NC[C@H](O)COc4cccc5[nH]c(=O)[nH]c45)CC3)cc2)S1 (stereo partly drawn) [Example 89, 4-((2S)-2-Hydroxy-3-{1-[4-(2-imino-4-oxo-thiazolidin-5-ylmethyl)-phenyl]-piperidin-4-ylamino}-propoxy)-1,3-dihydro-benzoimidazol-2-one]
19 | 1.2 | > 140 °C (dec.) | O=C1CCc2c(OC[C@@H](O)CNC3CCN(c4ccc(CC5SC(=O)NC5=O)cc4)CC3)ccc(O)c2N1 (stereo partly drawn) [Example 91, 5-(4-{4-[(2S)-2-Hydroxy-3-(8-hydroxy-2-oxo-1,2,3,4-tetrahydro-quinolin-5-yloxy)-propylamino]-piperidin-1-yl}-benzyl)-thiazolidine-2,4-dione]
20 | 1.1 | > 70 °C (dec.) | CS(=O)(=O)Nc1cc(OC[C@@H](O)CNC2CCN(c3ccc(CC4SC(=O)NC4=O)cc3)CC2)ccc1O (stereo partly drawn) [Example 92, N-[5-((2S)-3-{1-[4-(2,4-Dioxo-thiazolidin-5-ylmethyl)-phenyl]-piperidin-4-ylamino}-2-hydroxy-propoxy)-2-hydroxy-phenyl]-methanesulfonamide]
21 | 1 | > 120 °C (dec.) | O=C1NC(=O)C(Cc2ccc(N3CCC(NC[C@H](O)COc4ccc(O)c(NS(=O)(=O)c5ccccc5)c4)CC3)cc2)S1 (stereo partly drawn) [Example 93, N-[5-((2S)-3-{1-[4-(2,4-Dioxo-thiazolidin-5-ylmethyl)-phenyl]-piperidin-4-ylamino}-2-hydroxy-propoxy)-2-hydroxy-phenyl]-benzenesulfonamide]
22 | 0.59 | > 105 °C (dec.) | CS(=O)(=O)Nc1cc([C@@H](O)CNC2CCN(c3ccc(CC4SC(=O)NC4=O)cc3)CC2)ccc1Cl (stereo partly drawn) [Example 95, N-[2-Chloro-5-((1R)-2-{1-[4-(2,4-dioxo-thiazolidin-5-ylmethyl)-phenyl]-piperidin-4-ylamino}-1-hydroxy-ethyl)-phenyl]-methanesulfonamide]
23 | 0.93 | > 150 °C (dec.) | O=C1NC(=O)C(Cc2ccc(N3CCC(NC[C@H](O)c4ccc(O)c(NS(=O)(=O)c5ccccc5)c4)CC3)cc2)S1 (stereo partly drawn) [Example 96, N-(5-{(1R)-2-[(1-{4-[(2,4-Dioxo-1,3-thiazolidin-5-yl)methyl]phenyl}piperidin-4-yl)amino]-1-hydroxyethyl}-2-hydroxyphenyl)benzenesulfonamide]
24 | 0.9 | > 175 °C (dec.) | CS(=O)(=O)Nc1cc(C(O)CNC2CCN(c3ccc(-c4nnn[nH]4)cc3)CC2)ccc1O (stereo not shown) [Example 97, N-[2-Hydroxy-5-(1-hydroxy-2-{1-[4-(1H-tetrazol-5-yl)-phenyl]-piperidin-4-ylamino}-ethyl)-phenyl]-methanesulfonamide]
25 | 1 | > 140 °C (dec.) | CCOC(=O)Cn1nnnc1-c1ccc(N2CCC(NC[C@H](O)c3ccc(O)c(NS(C)(=O)=O)c3)CC2)cc1 [Example 98]
26 | 0.97 | > 210 °C (dec.) | CS(=O)(=O)Nc1cc([C@@H](O)CNC2CCN(c3ccc(-c4nnnn4CC(=O)O)cc3)CC2)ccc1O [Example 99, [5-(4-{4-[((2R)-2-Hydroxy-2-{4-hydroxy-3-[(methylsulfonyl)amino]phenyl}ethyl)amino]-1-piperidinyl}phenyl)-1H-tetraazol-1-yl]acetic acid]
